The values below come from patent publication US12350270B2, “Antimalarial agents” (Merck Sharp & Dohme LLC, priority 2019, dated 2025).

The structures appear in SMILES notation. pEC50: −log10 of the molar value.

In this assay the test system is parasites (ring stage, in human red blood cell culture). The assay can be described thus: Parasite LDH growth assay (antiparasite potency, Parasite Assay). In kind it is cell-based, Plasmodium falciparum. The note with it: 0.7% rings, 2% haematocrit, 72 hours at 37° C., LDH readout of parasite growth. An outline of the steps: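 Growth was read by an LDH assay after a freeze–thaw cycle (−80 °C overnight, 4 h thaw at RT). Before that, parasites grew with compound for 72 h at 37 °C under gassed, humidified conditions. The input was a ring-stage culture adjusted to 0.7% parasitemia and 2% haematocrit in serum (5%)/albumax (0.5%)-supplemented RPMI-Hepes.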

Setting [1] is: Plasmodium falciparum, Erythrocyte, 72 h.

For the compound `CC[C@]1(C)CC(=O)N([C@@H]2CCOc3ccc(C(=O)N[C@@H]4C[C@H](COC(F)F)Oc5ccccc54)cc32)C(=N)N1` [Example 268, (4R)-N-[(2R,4R)-2-(difluoromethoxymethyl)chro-man-4-yl]-4-[(4R)-4-ethyl-2-imino-4-methyl-6-oxo-hexahydropyrimidin-1-yl]chromane-6-carboxamide], under setting [1], the pEC50 is 7.60.

`CC[C@]1(C)CC(=O)N([C@@H]2CCOc3ccc(C(=O)N[C@H]4C[C@H](COC(F)F)Oc5ccccc54)cc32)C(=N)N1` [Example 269, (4R)-N-[(2R,4S)-2-(difluoromethoxymethyl)chro-man-4-yl]-4-[(4R)-4-ethyl-2-imino-4-methyl-6-oxo-hexahydropyrimidin-1-yl]chromane-6-carboxamide] showed a negative logarithm of the EC50 (pEC50) under setting [1] of 8.54.

In turn, `CC[C@]1(C)CC(=O)N([C@@H]2CCOc3ccc(C(=O)N[C@H]4C[C@@H](COC(F)F)Oc5ccccc54)cc32)C(=N)N1` [Example 270, (4R)-N-[(2S,4S)-2-(difluoromethoxymethyl)chro-man-4-yl]-4-[(4R)-4-ethyl-2-imino-4-methyl-6-oxo-hexahydropyrimidin-1-yl]chromane-6-carboxamide] gave a pEC50 under setting [1] of 8.74. Against the preceding compound, the pEC50 is 0.20 log units higher.

The compound `CCC1(CC)CC(=O)N([C@@H]2CCOc3ccc(C(=O)NC4c5ccc(C(F)(F)F)cc5CC4N)cc32)C(=N)N1` (stereo partly drawn) [Example 271, (4R)-N-[2-amino-5-(trifluoromethyl)indan-1-yl]-4-(4,4-diethyl-2-imino-6-oxo-hexahydropyrimidin-1-yl)chromane-6-carboxamide] showed a pEC50 under setting [1] of 6.74.

`CC1(C)CC(=O)N([C@@H]2CCOc3ccc(C(=O)N[C@@H]4c5cc(Cl)cc(Cl)c5OC[C@@]4(C)O)cc32)C(=N)N1` [Example 273, (4R)-N-[(3S,4R)-6,8-dichloro-3-hydroxy-3-methyl-chroman-4-yl]-4-(2-imino-4,4-dimethyl-6-oxo-hexahydropyrimidin-1-yl)chromane-6-carboxamide] showed a pEC50 under setting [1] of 8.11.

As to `CCC1(CC)CC(=O)N(C2CC(C(=O)N(C)C)Oc3ccc(C(=O)N[C@@H]4c5ccccc5C[C@H]4O)cc32)C(=N)N1` (stereo partly drawn) [Example 274, 4-(4,4-diethyl-2-imino-6-oxo-hexahydropyrimidin-1-yl)-N6-[(1R,2R)-2-hydroxyindan-1-yl]-N2,N2-dimethyl-chromane-26,-dicarboxamide], the negative-log EC50 (pEC50) under setting [1] was 7.01.

On to `CCOC(=O)C1(C)Oc2ccccc2C1NC(=O)c1ccc2c(c1)[C@H](N1C(=N)NC(CC)(CC)CC1=O)CCO2` (stereo partly drawn) [Example 275, ethyl 3-[[(4R)-4-(4,4-diethyl-2-imino-6-oxo-hexahydropyrimidin-1-yl)chromane-6-carbonyl]amino]-2-methyl-3H-benzofuran-2-carboxylate], for which the pEC50 is 7.59.

Under setting [1], `CCC1(CC)CC(=O)N([C@H]2c3cc(C(=O)N[C@@H]4c5ccccc5OC(C)(C)[C@H]4O)ccc3CC[C@@H]2OC)C(=N)N1` [Example 276, (3S,4S)-4-(4,4-diethyl-2-imino-6-oxo-hexahydropyrimidin-1-yl)-N-[(3S,4R)-3-hydroxy-2,2-dimethyl-chroman-4-yl]-3-methoxy-tetralin-6-carboxamide] had a pEC50 of 9.22.

Compound `CCC1(CC)CC(=O)N([C@H]2c3cc(C(=O)N[C@@H]4c5ccccc5OC[C@]4(C)O)ccc3O[C@]2(C)COC)C(=N)N1` [Example 278, (2S,3S)-3-(4,4-diethyl-2-imino-6-oxo-hexahydropyrimidin-1-yl)-N-[(3R,4R)-3-hydroxy-3-methyl-chroman-4-yl]-2-(methoxymethyl)-2-methyl-3H-benzofuran-5-carboxamide] showed a negative logarithm of the EC50 (pEC50) under setting [1] of 7.91.

Take `CCC1(CC)CC(=O)N([C@H]2c3cc(C(=O)N[C@@H]4c5ccccc5OC[C@@]4(C)O)ccc3O[C@]2(C)COC)C(=N)N1` [Example 279, (2S,3S)-3-(4,4-diethyl-2-imino-6-oxo-hexahydropyrimidin-1-yl)-N-[(3S,4R)-3-hydroxy-3-methyl-chroman-4-yl]-2-(methoxymethyl)-2-methyl-3H-benzofuran-5-carboxamide]: the pEC50 under setting [1] was 7.50.

Turning to `CCC1(CC)CC(=O)N([C@H]2c3cc(C(=O)N[C@@H]4c5ccccc5OC[C@@]4(C)O)ccc3O[C@@]2(C)COC)C(=N)N1` [Example 281, (2R,3S)-3-(4,4-diethyl-2-imino-6-oxo-hexahydropyrimidin-1-yl)-N-[(3S,4R)-3-hydroxy-3-methyl-chroman-4-yl]-2-(methoxymethyl)-2-methyl-3H-benzofuran-5-carboxamide], under setting [1], the negative logarithm of the EC50 (pEC50) was 8.96. Compared with the last compound, the pEC50 is 1.46 log units higher.

`CCC1(CC)CC(=O)N([C@@H]2C[C@@H](COC)Oc3ccc(C(=O)N[C@@H]4c5ccccc5OC[C@@]4(C)O)cc32)C(=N)N1` [Example 283, (2S,4R)-4-(4,4-diethyl-2-imino-6-oxo-hexahydropyrimidin-1-yl)-N-[(3S,4R)-3-hydroxy-3-methyl-chroman-4-yl]-2-(methoxymethyl)chromane-6-carboxamide] had a negative logarithm of the EC50 (pEC50) under setting [1] of 8.59.

As for `CC[C@]1(C)CC(=O)N(C2c3cc(C(=O)N[C@@H]4c5ccccc5OC(C)(C)[C@H]4O)ccc3OCC2(C)OC)C(=N)N1` (stereo partly drawn) [Example 284, 4-[(4R)-4-ethyl-2-imino-4-methyl-6-oxo-hexahydropyrimidin-1-yl]-N-[(3S,4R)-3-hydroxy-2,2-dimethyl-chroman-4-yl]-3-methoxy-3-methyl-chromane-6-carboxamide], the pEC50 under setting [1] was 8.07. This pEC50 lies 0.52 log units lower than the previous one.

As for `CCC1(CC)CC(=O)N(C2c3cc(C(=O)N[C@@H]4c5ccccc5C[C@H]4O)ccc3OC2(COC)COC)C(=N)N1` (stereo partly drawn) [Example 285, 3-(4,4-diethyl-2-imino-6-oxo-hexahydropyrimidin-1-yl)-N-[(1R,2R)-2-hydroxyindan-1-yl]-2,2-bis(methoxymethyl)-3H-benzofuran-5-carboxamide], the pEC50 under setting [1] was 7.45.

For the compound `CCC1(CC)CC(=O)N([C@@H]2c3cc(C(=O)N[C@@H]4c5ccccc5OC[C@@]4(C)O)ccc3OC[C@@H]2COC)C(=N)N1` [Example 286, (3S,4S)-4-(4,4-diethyl-2-imino-6-oxo-hexahydropyrimidin-1-yl)-N-[(3S,4R)-3-hydroxy-3-methyl-chroman-4-yl]-3-(methoxymethyl)chromane-6-carboxamide], the pEC50 under setting [1] is 6.62.

As to `CCC1(CC)CC(=O)N([C@H]2c3cc(C(=O)N[C@@H]4c5ccccc5OC[C@@]4(C)O)ccc3OC[C@H]2COC)C(=N)N1` [Example 287, (3R,4R)-4-(4,4-diethyl-2-imino-6-oxo-hexahydropyrimidin-1-yl)-N-[(3S,4R)-3-hydroxy-3-methyl-chroman-4-yl]-3-(methoxymethyl)chromane-6-carboxamide], the negative-log EC50 (pEC50) under setting [1] was 8.72.

As to `CCC1(CC)CC(=O)N([C@H]2c3cc(C(=O)N[C@@H]4c5ccccc5OC[C@@]4(C)O)ccc3OC[C@@H]2COC)C(=N)N1` [Example 288, (3S,4R)-4-(4,4-diethyl-2-imino-6-oxo-hexahydropyrimidin-1-yl)-N-[(3S,4R)-3-hydroxy-3-methyl-chroman-4-yl]-3-(methoxymethyl)chromane-6-carboxamide], the negative-log EC50 (pEC50) under setting [1] is 8.74.

In turn, `CCC1(CC)CC(=O)N([C@@H]2CCS(=O)(=O)c3ccc(C(=O)N[C@H]4CC(C)(C)Oc5ccccc54)cc32)C(=N)N1` [Example 289, (4R)-4-(4,4-diethyl-2-imino-6-oxo-hexahydropyrimidin-1-yl)-N-[(4S)-2,2-dimethylchroman-4-yl]-1,1-dioxo-3,4-dihydro-2H-thiochromane-6-carboxamide] showed a pEC50 of 9.22.

Under setting [1], `CCC1(CC)CC(=O)N([C@H]2c3cc(C(=O)N[C@@H]4c5ccccc5C(F)(F)[C@H]4O)ccc3O[C@@]2(C)COC)C(=N)N1` [Example 290, (2R,3S)-3-(4,4-diethyl-2-imino-6-oxo-hexahydropyrimidin-1-yl)-N-[(1R,2S)-3,3-difluoro-2-hydroxy-indan-1-yl]-2-(methoxymethyl)-2-methyl-3H-benzofuran-5-carboxamide] showed a negative logarithm of the EC50 (pEC50) of 9.52.

Regarding `CCC1(CC)CC(=O)N(C2CC(C(=O)N(C)C)Oc3ccc(C(=O)N[C@@H]4c5ccccc5C[C@@]4(C)O)cc32)C(=N)N1` (stereo partly drawn) [Example 292, 4-(4,4-diethyl-2-imino-6-oxo-hexahydropyrimidin-1-yl)-N6-[(1R,2R)-2-hydroxy-2-methyl-indan-1-yl]-N2,N2-dimethyl-chromane-2,6-dicarboxamide], the pEC50 under setting [1] was 7.30.

Take `CC1(C)CC(=O)N([C@@H]2CCS(=O)(=O)c3ccc(C(=O)N[C@H]4C[C@H](C(F)(F)F)Oc5ccccc54)cc32)C(=N)N1` [Example 293, (4R)-4-(2-imino-4,4-dimethyl-6-oxo-hexahydropyrimidin-1-yl)-1,1-dioxo-N-[(2R,4S)-2-(trifluoromethyl)chroman-4-yl]-3,4-dihydro-2H-thiochromene-6-carboxamide]: the pEC50 under setting [1] is 8.55.

`CC1(C)CC(=O)N([C@H]2CCS(=O)(=O)c3ccc(C(=O)N[C@H]4C[C@H](C(F)(F)F)Oc5ccccc54)cc32)C(=N)N1` [Example 294, (4S)-4-(2-imino-4,4-dimethyl-6-oxo-hexahydropyrimidin-1-yl)-1,1-dioxo-N-[(2R,4S)-2-(trifluoromethyl)chroman-4-yl]-3,4-dihydro-2H-thiochromene-6-carboxamide] showed a pEC50 under setting [1] of 6.59.

As to `CCC1(CC)CC(=O)N([C@@H]2c3cc(C(=O)N[C@@H]4c5ccccc5OC(C)(C)[C@H]4O)ccc3OC[C@@]2(C)OC)C(=N)N1` [Example 295, (3S,4R)-4-(4,4-diethyl-2-imino-6-oxo-hexahydropyrimidin-1-yl)-N-[(3S,4R)-3-hydroxy-2,2-dimethyl-chroman-4-yl]-3-methoxy-3-methyl-chromane-6-carboxamide], the negative logarithm of the EC50 (pEC50) under setting [1] is 7.00.

`CCC1(CC)CC(=O)N([C@H]2c3cc(C(=O)N[C@@H]4c5ccccc5OC(C)(C)[C@H]4O)ccc3OC[C@]2(C)OC)C(=N)N1` [Example 296, (3R,4S)-4-(4,4-diethyl-2-imino-6-oxo-hexahydropyrimidin-1-yl)-N-[(3S,4R)-3-hydroxy-2,2-dimethyl-chroman-4-yl]-3-methoxy-3-methyl-chromane-6-carboxamide] gave a pEC50 under setting [1] of 9.52.

As usually defined, the pEC50 is −log10 of the EC50, conventionally taken in molar units.
